Measured values from ChEMBL document CHEMBL1121747, “Side-chain effects on phenothiazine cation radical reactions” (J Med Chem, 1981).

Test: Dissociation constant was reported
Type: physicochemical

pKa: 9.1
Structure (SMILES): CN(C)CCN1c2ccccc2Sc2ccc(Cl)cc21 [CHOLRPHENETHAZINE]
